# According to paper PMC9124600 (Medical Oncology (Northwood, London, England), 2022):
# Target: T1, MASTL kinase (Microtubule-associated serine/threonine kinase-like; Great wall kinase) (Homo sapiens, UniProt Q96GX5)
# T1 sequence (Q96GX5 1-879): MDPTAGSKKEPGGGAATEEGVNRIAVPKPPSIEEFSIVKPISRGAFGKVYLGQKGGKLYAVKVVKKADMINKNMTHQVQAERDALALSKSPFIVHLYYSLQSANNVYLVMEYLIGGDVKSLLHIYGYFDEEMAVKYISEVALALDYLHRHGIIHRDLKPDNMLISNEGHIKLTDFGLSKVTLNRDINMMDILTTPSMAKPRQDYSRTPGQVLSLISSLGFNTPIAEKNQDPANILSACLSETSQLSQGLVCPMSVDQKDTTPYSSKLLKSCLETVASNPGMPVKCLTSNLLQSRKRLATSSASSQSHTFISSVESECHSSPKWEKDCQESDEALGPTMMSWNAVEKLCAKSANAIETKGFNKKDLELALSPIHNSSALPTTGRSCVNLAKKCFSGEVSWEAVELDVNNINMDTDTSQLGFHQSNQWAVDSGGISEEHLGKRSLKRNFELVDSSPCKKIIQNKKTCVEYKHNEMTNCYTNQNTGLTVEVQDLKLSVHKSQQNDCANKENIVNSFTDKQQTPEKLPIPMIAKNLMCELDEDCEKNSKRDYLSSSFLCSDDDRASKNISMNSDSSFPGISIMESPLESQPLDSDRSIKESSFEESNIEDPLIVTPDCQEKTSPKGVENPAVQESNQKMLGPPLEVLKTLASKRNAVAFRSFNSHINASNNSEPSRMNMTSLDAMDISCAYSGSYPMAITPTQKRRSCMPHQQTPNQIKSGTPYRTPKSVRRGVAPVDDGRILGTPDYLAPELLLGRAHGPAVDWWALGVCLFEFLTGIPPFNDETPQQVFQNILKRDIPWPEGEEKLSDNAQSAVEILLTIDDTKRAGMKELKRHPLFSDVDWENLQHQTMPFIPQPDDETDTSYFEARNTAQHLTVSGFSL
# Assay: ADP-Glo luminescent in vitro kinase assay
# Assay type: biochemical
row,SMILES,EC50
1,CC(=O)c1c(C)c2cnc(Nc3ccc(N4CCNCC4)cn3)nc2n(C2CCCC2)c1=O [Palbociclib],10.5 µM
2,Cn1cc(C2=C(c3cn(C4CCN(Cc5ccccn5)CC4)c4ccccc34)C(=O)NC2=O)c2ccccc21 [Enzastaurin],17.1 µM
